Measured values: US20060094649A1, “Hla-a1,-a2,-a3,-a24,-b7, and-b44 tumor associated antigen peptides and compositions” (priority 2002, published 2006)
“Also recorded” adds a separate entry of the source. Where two headings read alike, the source gives them in different places. Values belong to the compound of their own block, whether it stands above or below them. No end group written: not given here.

Columns and labels:
[1] = test system: wildtype peptide-pulsed target cells; assay: CTL recognition of wildtype peptide-pulsed targets; format: cell-based, human; conditions: for pulsed EHM target cell line: positive responses/total tested, positive = 10% specific lysis above background or twice background and at least 50 pg IFNg/well in at least one of 48 wells
[2] = test system: tumor cell lines expressing the TAA; assay: CTL recognition of endogenous targets (tumor cell lines expressing the TAA); format: cell-based, human; conditions: for Tumor target cell line: only wells positive for peptide-pulsed targets
HLA-A*6801 = HLA-A*6801 (Homo sapiens, UniProt P04439, A269V/D185E/E176V/E277Q/E87N/F33Y/G231S/I121M/I166T/I218V/L180W/L300P/L318F/N151K/P208A/P217A/Q86R/R169H/T345S); assay: Class I peptide-binding assay, HLA-A*6801; conditions: Table 16b, Her2/neu-derived
HLA-A*3301 = HLA-A*3301 (Homo sapiens, UniProt P04439, A270S/D185E/E176V/E277Q/E87N/F33T/G231S/H175R/I121M/I218V/I322F/K168Q/K210R/L300P/L318F/M331R/P217A/Q86R/Q94H/R138Q/T323A/T345S/T97I/V358M/Y195H); assay: Class I peptide-binding assay, HLA-A*3301; conditions: Table 16b, Her2/neu-derived
HLA-A*3101 = HLA-A*3101 (Homo sapiens, UniProt P04439, A270S/D185E/E176V/E277Q/F33T/G231S/G80R/H175R/I121M/I218V/I322F/K168Q/L300P/L318F/M331R/P217A/Q94H/R138Q/T323A/T345S/T97I/V358M); assay: Class I peptide-binding assay, HLA-A*3101; conditions: Table 16b, Her2/neu-derived
HLA-A*1101 = HLA-A*1101 (Homo sapiens, UniProt P04439, A114D/D185E/E176A/F33Y/L180Q/S129P/T187R); assay: Class I peptide-binding assay, HLA-A*1101
HLA-A*0301 = HLA-A*0301 (Homo sapiens, UniProt P04439); assay: Class I peptide-binding assay, HLA-A*0301
HLA-B*4002 = HLA-B*4002 (Homo sapiens, UniProt P01889, A65T/A93T/A95T/D138N/D201E/D98Y/E176V/E204Q/E69K/K202T/N87E/Q56L/Q94N/R180L/S48T/Y33H/Y91S); assay: Class I peptide-binding assay, HLA-B*4002 (B44 supertype); conditions: HER2/neu-derived B44 peptides, Table 27; binding to purified HLA-B*4002
HLA-A*0101 = HLA-A*0101 (Homo sapiens, UniProt P04439, A114D/A174V/A182V/D101N/D185E/E176A/E190D/L180R/Q94H/R68K/S129P/T187R/V100A/V91M/W191G); assay: Class I peptide-binding assay, HLA-A*0101
HLA-A*2402 = HLA-A*2402 (Homo sapiens, UniProt P04439, D101N/D140Y/D185E/E176V/E190D/F33S/G103R/G107R/I119L/I121M/I306V/K335N/L105A/L180Q/L300P/N151K/N90K/Q86E/Q94H/R106L/R138H/R89G/T104I/T345S/V100E/W191G/Y123F); assay: Class I peptide-binding assay, HLA-A*2402; conditions: Table 19a, CEA-derived A24 binders
[3] = test system: peptide-pulsed target cells; conditions: outside investigators; cited from earlier work
[4] = co-emulsified with HPV-derived CTL epitopes; cited from earlier work
[5] = Table 16c, second part, positive/total tested
[6] = 938mel (A3−, Mage2+, Mage3+) and 624mel (A3+, Mage2+, Mage3+)
[7] = Table 16d, second part, positive/total tested
[8] = SW403 (A3+, p53−) and SW403/p53 transfectant (A3+, p53+)
[9] = Table 18a, CEA-derived A1 binders

Compound: C[C@@H](O)[C@H](NC(=O)[C@@H](N)CCCCN)C(=O)N[C@@H](Cc1ccc(O)cc1)C(=O)N[C@@H](CCC(N)=O)C(=O)NCC(=O)N[C@@H](CO)C(=O)N[C@@H](Cc1ccc(O)cc1)C(=O)NCC(=O)N[C@@H](Cc1ccccc1)C(=O)N[C@@H](CCCCN)C(=O)O
Immunogenicity Wildtype ([1]; Table 20): 0/1 | Immunogenicity Tumor ([2]; Table 20): 0/1

Compound: CC[C@H](C)[C@H](NC(=O)[C@@H](N)[C@@H](C)O)C(=O)N[C@@H](CO)C(=O)N1CCC[C@H]1C(=O)N[C@@H](CC(C)C)C(=O)N[C@@H](CC(N)=O)C(=O)N[C@H](C(=O)N[C@@H](CO)C(=O)N[C@@H](Cc1ccc(O)cc1)C(=O)N[C@@H](CCCCN)C(=O)O)[C@@H](C)O
Immunogenicity Wildtype ([1]; Table 20): 2/3

Compound: CC[C@H](C)[C@H](NC(=O)CNC(=O)[C@H](Cc1ccccc1)NC(=O)[C@@H](NC(=O)[C@@H](N)C(C)C)C(C)C)C(=O)N[C@@H](CC(C)C)C(=O)N[C@H](C(=O)N[C@@H](CCCCN)C(=O)N[C@@H](CCCNC(=N)N)C(=O)O)[C@@H](C)CC
Immunogenicity Tumor ([2]; Table 20): 0/1

Compound: CC[C@H](NC(=O)[C@H](CCCNC(=N)N)NC(=O)[C@H](CCCNC(=N)N)NC(=O)[C@@H](NC(=O)[C@@H](N)C(C)C)C(C)C)C(=O)N1CCC[C@H]1C(=O)N[C@@H](Cc1c[nH]cn1)C(=O)N[C@@H](Cc1c[nH]cn1)C(=O)N[C@@H](CCC(=O)O)C(=O)N[C@@H](CCCCN)C(=O)O [VVRRBPHHEK]
Immunogenicity Wildtype ([1]; Table 20): 1/2 | Immunogenicity Tumor ([2]; Table 20): 1/2

Compound: CC[C@H](C)[C@H](NC(=O)CNC(=O)[C@H](Cc1ccccc1)NC(=O)[C@@H](NC(=O)[C@@H](N)C(C)C)C(C)C)C(=O)N[C@@H](CC(C)C)C(=O)N[C@H](C(=O)N[C@@H](CCCCN)C(=O)N[C@@H](CCCNC(=N)N)C(=O)O)[C@@H](C)CC [compound 57]
Number of CTL inductions yielding positive responses/total tested, Wildtype-pulsed EHM target cell line ([1]; positive = 10% specific lysis above background (51Cr release) or twice background and at least 50 pg IFNγ/well in at least one of 48 wells): 1/3

IC50 (HLA-A*6801): 15 nM | IC50 (HLA-A*3301): 193 nM | IC50 (HLA-A*3101): 290 nM | IC50 (HLA-A*1101; Table 16b, Her2/neu-derived): 375 nM | IC50 (HLA-A*0301; Table 16b, Her2/neu-derived): 3670 nM
Compound: CC[C@H](C)[C@H](NC(=O)CNC(=O)[C@H](Cc1ccccc1)NC(=O)[C@@H](NC(=O)[C@@H](N)C(C)C)C(C)C)C(=O)N[C@@H](CC(C)C)C(=O)N[C@H](C(=O)N[C@@H](CCCCN)C(=O)N[C@@H](CCCNC(=N)N)C(=O)N[C@@H](CCCNC(=N)N)C(=O)O)[C@@H](C)CC [compound 58]

Compound: CC[C@H](C)[C@H](NC(=O)[C@@H](NC(=O)[C@@H](NC(=O)[C@H](CO)NC(=O)[C@@H](N)Cc1ccccc1)[C@@H](C)O)[C@@H](C)O)C(=O)N[C@@H](CC(N)=O)C(=O)N[C@@H](Cc1ccc(O)cc1)C(=O)N[C@H](C(=O)N[C@@H](CC(C)C)C(=O)N[C@@H](Cc1c[nH]c2ccccc12)C(=O)N[C@@H](CCCNC(=N)N)C(=O)O)[C@@H](C)O [compound 80]
Immunogenicity Wildtype [1, 5]: 0/2

Compound: CC[C@H](C)[C@H](NC(=O)[C@@H](NC(=O)[C@@H](N)[C@@H](C)O)[C@@H](C)O)C(=O)N[C@@H](CC(N)=O)C(=O)N[C@@H](Cc1ccc(O)cc1)C(=O)N[C@H](C(=O)N[C@@H](CC(C)C)C(=O)N[C@@H](Cc1c[nH]c2ccccc12)C(=O)N[C@@H](CCCNC(=N)N)C(=O)O)[C@@H](C)O [compound 82]
pulsed EHM target cell line [1]: 7/7 | Tumor target cell line [2, 6]: 2/5

Compound: CC(C)C[C@H](NC(=O)[C@H](CC(C)C)NC(=O)[C@H](CC(C)C)NC(=O)[C@H](Cc1ccccc1)NC(=O)[C@H](Cc1c[nH]cn1)NC(=O)[C@@H](NC(=O)[C@@H](N)CC(C)C)C(C)C)C(=O)N[C@@H](CCCCN)C(=O)N[C@@H](CCCCN)C(=O)O [compound 87]
Tumor target cell line [2, 6]: 0/1 | Immunogenicity Tumor [2, 5]: 0/1

Compound: C[C@@H](O)[C@H](NC(=O)[C@@H](N)CCCCN)C(=O)N[C@@H](Cc1ccc(O)cc1)C(=O)N[C@@H](CCC(N)=O)C(=O)NCC(=O)N[C@@H](CO)C(=O)N[C@@H](Cc1ccc(O)cc1)C(=O)NCC(=O)N[C@@H](Cc1ccccc1)C(=O)N[C@@H](CCCCN)C(=O)O [compound 104]
Immunogenicity Wildtype [1, 7]: 0/1 | pulsed EHM target cell line [1]: 0/1 | Tumor target cell line [2, 8]: 0/1 | Immunogenicity Tumor [2, 7]: 0/1

Compound: CC(C)C[C@H](NC(=O)[C@H](C)NC(=O)[C@@H]1CCCN1C(=O)[C@H](CO)NC(=O)[C@H](Cc1ccc(O)cc1)NC(=O)[C@@H](NC(=O)[C@@H](N)CS)[C@@H](C)O)C(=O)N[C@@H](CC(N)=O)C(=O)N[C@@H](CCCCN)C(=O)O [compound 107]
pulsed EHM target cell line [1]: 0/1

Compound: CC[C@H](C)[C@H](NC(=O)[C@H](C)NC(=O)[C@H](CCSC)NC(=O)[C@H](C)NC(=O)[C@H](CCCNC(=N)N)NC(=O)[C@@H](NC(=O)[C@H](CCCNC(=N)N)NC(=O)[C@@H](NC(=O)CN)[C@@H](C)O)C(C)C)C(=O)N[C@@H](Cc1ccc(O)cc1)C(=O)N[C@@H](CCCCN)C(=O)O [compound 111]
pulsed EHM target cell line [1]: 0/1

Compound: CC[C@H](NC(=O)[C@H](CCCNC(=N)N)NC(=O)[C@H](CCCNC(=N)N)NC(=O)[C@@H](NC(=O)[C@@H](N)C(C)C)C(C)C)C(=O)N1CCC[C@H]1C(=O)N[C@@H](Cc1c[nH]cn1)C(=O)N[C@@H](Cc1c[nH]cn1)C(=O)N[C@@H](CCC(=O)O)C(=O)N[C@@H](CCCCN)C(=O)O [compound 116]
Immunogenicity Wildtype [1, 7]: 1/2 | pulsed EHM target cell line [1]: 1/2 | Tumor target cell line [2, 8]: 1/2 | Immunogenicity Tumor [2, 7]: 1/2

Compound: CC(C)[C@H](NC(=O)[C@@H](N)CCCNC(=N)N)C(=O)N[C@@H](CS)C(=O)N[C@@H](C)C(=O)N[C@@H](CS)C(=O)N1CCC[C@H]1C(=O)NCC(=O)N[C@@H](CCCNC(=N)N)C(=O)O [compound 124]
pulsed EHM target cell line [1]: 0/1

Compound: CSCC[C@H](NC(=O)[C@H](CC(C)C)NC(=O)[C@H](CCCCN)NC(=O)[C@H](CCCCN)NC(=O)[C@H](Cc1c[nH]cn1)NC(=O)[C@H](CCCNC(=N)N)NC(=O)[C@H](CO)NC(=O)[C@@H](NC(=O)[C@@H](N)CO)[C@@H](C)O)C(=O)N[C@@H](Cc1ccccc1)C(=O)N[C@@H](CCCCN)C(=O)O [compound 126]
pulsed EHM target cell line [1]: 1/2

IC50 (HLA-B*4002): 9.5 nM
Compound: CC[C@H](C)[C@H](NC(=O)[C@@H](NC(=O)[C@H](CS)NC(=O)[C@@H](NC(=O)[C@@H]1CCCN1C(=O)[C@@H]1CCCN1C(=O)[C@H](CCC(N)=O)NC(=O)[C@@H]1CCCN1C(=O)[C@H](CC(C)C)NC(=O)[C@H](CCCNC(=N)N)NC(=O)[C@H](CCC(=O)O)NC(=O)CN)[C@@H](C)CC)[C@@H](C)O)C(=O)O [compound 493]

IC50 (HLA-A*0101; [9]): 45 nM
Compound: H-HSDSNFSPQY-OH

IC50 (HLA-A*0101; [9]): 641 nM
Compound: H-ITEKNSCLY-OH

IC50 (HLA-A*0101; [9]): 96 nM
Compound: H-LTDNNSGSY-OH

IC50 (HLA-A*0101; Table 18c, Mage2/3-derived A1 binders): 96 nM
Compound: H-LTQEFVQENY-OH

IC50 (HLA-A*2402): 1460 nM
Compound: H-LWWYNGQSL-OH

Compound: MAGE3.189: MAGE3-derived A3 supertype wildtype peptide (Table 16c) (LLGDNQIMPK)
CTL induction / antigenicity reported in the literature (in words) [3]: antigenic

Compound: MAGE3.196 9-mer: MAGE3-derived B7 motif wildtype 9-mer
CTL induction / antigenicity reported in the literature (in words) [3]: antigenicity

IC50 (HLA-A*1101; Table 16d, p53-derived): 4.3 nM | IC50 (HLA-A*0301; Table 16d, p53-derived): 550 nM
Compound: SSCMGGMNR [compound 117]

Compound: aKXVAAWTLKAAa-NH2 [PADRE®, a=D-alanine, X=cyclohexylalanine]
safety in the trial (in words) [4]: favorable safety profile

Compound: p53.172B5K10: p53-derived A3 supertype analog, B at position 5 and K at position 10
CTL recognition of wildtype peptide-pulsed targets (in words) [1]: recognize analog and wildtype peptide-pulsed targets; also recorded: recognize both the wildtype sequence; also recorded: lyse wildtype-peptide coated targets | CTL recognition of tumor / endogenous targets (in words) [2]: transfected tumor target cells; also recorded: p53 transfected tumor targets | CTL recognition of tumor / endogenous targets (in words) ([2]; listed as p53.172.B5KIO): induce tumor-reactive CTLs
